From patent US20100159496A1, “EVALUATION METHOD FOR PHOTOSYNTHESIS SAMPLE, EVALUATION SYSTEM FOR PHOTOSYNTHESIS SAMPLE, AND EVALUATION PROGRAM FOR PHOTOSYNTHESIS SAMPLE” (HAMAMATSU PHOTONICS K.K., priority 2006, published 2010)

System: Spirulina platensis
Assay: Delayed luminescence of S. platensis exposed to simazine, fitted by Formula (1)
Assay type: cell-based
Set-up: Fitting formula value c3 / Fitting formula value a1 / Fitting formula value b1 / Fitting formula value c1 / Fitting formula value a2 / Fitting formula value b2 / Fitting formula value c2 / Fitting formula value a3 / Fitting formula value b3: unit not given here
Conditions: for luminescence amount of delayed luminescence, exposed vs not exposed: 15 minutes after exposure (FIG. 10); for Fitting formula value a1 / Fitting formula value a2 / Fitting formula value a3 / Fitting formula value b1 / Fitting formula value b2 / Fitting formula value b3 / Fitting formula value c1 / Fitting formula value c2 / Fitting formula value c3: 15 minutes after exposure
Description: In the present example, the measurement of delayed luminescence was carried out as follows. 2.5 mL of an S. platensis cell suspension, adjusted to have an absorbance at 660 nm of 0.05 in a general, 10×10 mm spectrometric cell, was exposed to simazine of any of various concentrations and left to stand for 15 minutes under a white fluorescent lamp of a light amount of 50 μmol·m−2·s−1. Thereafter, inside the measuring device 10, a red light (660 nm) of approximately 300 μmol·m−2·s−1 was illuminated for 10 seconds from the light source 18 as the excitation light for making delayed luminescence be emitted and then the delayed luminescence emitted after extinguishing of the excitation light was recorded for 50 seconds at 0.1 second intervals.
In the present example, the above-described Formula (1) was used for fitting. As examples for description of the fitting results, the measurement result for the “Not exposed” case is shown in FIG. 11A and a graph of the results of fitting to the measurement data are shown in FIG. 11B. In FIG. 11B, f1(t), f2(t), and f3(t) are respectively the first function, the second function, and the third function in Formula (1). From FIG. 11, it can be understood that the delayed luminescence measurement data can be fitted by a plurality of hill-shaped functions.
By the fitting, the function coefficients, ai, bi, and ci (i=1, 2, 3) are determined.

[1] = simazine exposure concentration 5 μg/L
[2] = simazine exposure concentration 25 μg/L
[3] = simazine exposure concentration 50 μg/L
[4] = simazine exposure concentration 100 μg/L

## CCNc1nc(Cl)nc(NCC)n1 [Simazine, simazine]
S. platensis (FIG. 12)
  variation of evaluation value c3 with simazine exposure concentration: decreases in accordance with the simazine exposure concentration
Early time period (near 0 seconds) of time after excitation
  luminescence amount of delayed luminescence, exposed vs not exposed: increases
Later time period (5 seconds onward) after excitation
  luminescence amount of delayed luminescence, exposed vs not exposed: decreases
[1]
  Fitting formula value a1: 0.2
  Fitting formula value a2: 0.01
  Fitting formula value a3: 0.006
  Fitting formula value b1: −0.5
  Fitting formula value b2: −0.5
  Fitting formula value b3: 22
  Fitting formula value c1: 4.5
  Fitting formula value c2: 3.5
  Fitting formula value c3: 2.2
[2]
  Fitting formula value a1: 0.2
  Fitting formula value a2: 0.018
  Fitting formula value a3: 0.005
  Fitting formula value b1: −0.5
  Fitting formula value b2: −0.5
  Fitting formula value b3: 22
  Fitting formula value c1: 4.8
  Fitting formula value c2: 3.8
  Fitting formula value c3: 1.6
[3]
  Fitting formula value a1: 0.3
  Fitting formula value a2: 0.02
  Fitting formula value a3: 0.01
  Fitting formula value b1: −0.5
  Fitting formula value b2: −0.5
  Fitting formula value b3: 21
  Fitting formula value c1: 5
  Fitting formula value c2: 3.8
  Fitting formula value c3: 1.2
[4]
  Fitting formula value a1: 0.4
  Fitting formula value a2: 0.024
  Fitting formula value a3: 0.02
  Fitting formula value b1: −0.5
  Fitting formula value b2: −0.5
  Fitting formula value b3: 20
  Fitting formula value c1: 5.5
  Fitting formula value c2: 3.8
  Fitting formula value c3: 0.7
